Where a name gives a salt, the structure may show the parent alone.
Columns and labels:
5-HT2 receptor = details: Seeger et al. 1995; cited from earlier work
dopamine D2 receptor = dopamine D2 receptor (Homo sapiens, UniProt P14416); details: Seeger et al. 1995; cited from earlier work
5-HT1A = biological target: T1, 5-HT1A (Homo sapiens, UniProt P08908); details: Seeger et al. 1995; cited from earlier work
T1 sequence (P08908 1-422): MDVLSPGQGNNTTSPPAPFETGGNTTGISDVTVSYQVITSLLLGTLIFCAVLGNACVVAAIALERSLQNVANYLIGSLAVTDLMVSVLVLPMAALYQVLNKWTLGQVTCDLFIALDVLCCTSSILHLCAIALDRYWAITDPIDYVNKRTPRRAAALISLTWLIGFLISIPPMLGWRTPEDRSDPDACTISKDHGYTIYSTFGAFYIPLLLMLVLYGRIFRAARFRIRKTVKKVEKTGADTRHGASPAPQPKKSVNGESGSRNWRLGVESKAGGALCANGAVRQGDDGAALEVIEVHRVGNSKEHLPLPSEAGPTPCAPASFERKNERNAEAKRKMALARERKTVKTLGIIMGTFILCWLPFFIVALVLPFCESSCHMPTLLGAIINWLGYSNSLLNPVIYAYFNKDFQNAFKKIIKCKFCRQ

5-HT1D = 5-HT1D (Homo sapiens, UniProt P28221); details: Seeger et al. 1995; cited from earlier work
5-HT2C = biological target: T2, 5-HT2C (Homo sapiens, UniProt P28335); details: Seeger et al. 1995; cited from earlier work
T2 sequence (P28335 33-458): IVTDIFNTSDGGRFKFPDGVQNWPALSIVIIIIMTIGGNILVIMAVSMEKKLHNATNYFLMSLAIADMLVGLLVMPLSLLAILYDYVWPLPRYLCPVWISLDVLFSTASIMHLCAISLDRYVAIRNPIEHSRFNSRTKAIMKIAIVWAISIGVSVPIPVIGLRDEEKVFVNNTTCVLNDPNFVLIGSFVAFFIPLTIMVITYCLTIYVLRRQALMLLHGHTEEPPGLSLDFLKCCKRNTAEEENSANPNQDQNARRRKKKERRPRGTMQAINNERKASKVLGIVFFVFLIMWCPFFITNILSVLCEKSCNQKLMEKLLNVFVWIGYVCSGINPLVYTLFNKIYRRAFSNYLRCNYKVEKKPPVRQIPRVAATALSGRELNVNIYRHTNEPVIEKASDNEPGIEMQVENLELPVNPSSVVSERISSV

[1] = ziprasidone administered orally; cited from earlier work
D2 dopamine receptors = D2 dopamine receptors (Homo sapiens, UniProt P14416); experiment: Competition radioreceptor assay, D2 dopamine receptors; details: 90 minute incubation; (+)-butaclamol (0.25 μM) defining nonspecific binding; read-out: KD of radioligand
Description: Competition radioreceptor assays are used to determine the affinity (IC50's) of the phenylaminotetralins and other reference ligands for D2 dopamine receptors. […] Jarvie, J. R. et al., Eur. J. Pharmacol., 144:163–171 (1987) and Kula, N. S. et al., Dev. Brain Res., 66:286–287 (1992). […] Test agents are evaluated by running, in duplicate, six or more concentrations that bracketed the IC50. Three replications are performed, and the resulting data are analyzed using the ALLFIT program.

dopamine D2 receptor, sequence (P14416 whole entry, species assumed): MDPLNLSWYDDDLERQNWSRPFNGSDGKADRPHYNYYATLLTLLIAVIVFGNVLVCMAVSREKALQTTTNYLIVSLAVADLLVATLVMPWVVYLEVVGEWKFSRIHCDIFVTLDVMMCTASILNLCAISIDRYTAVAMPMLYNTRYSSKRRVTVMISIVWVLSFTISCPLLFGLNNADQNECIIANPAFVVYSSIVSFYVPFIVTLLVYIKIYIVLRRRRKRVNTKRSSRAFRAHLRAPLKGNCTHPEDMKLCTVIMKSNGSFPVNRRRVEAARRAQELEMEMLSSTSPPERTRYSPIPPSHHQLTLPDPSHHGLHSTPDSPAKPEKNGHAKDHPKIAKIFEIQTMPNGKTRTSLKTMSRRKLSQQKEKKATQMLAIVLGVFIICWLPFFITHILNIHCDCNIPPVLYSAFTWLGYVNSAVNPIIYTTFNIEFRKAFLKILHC
D2 dopamine receptors, sequence (P14416 whole entry): as the sequence (P14416 whole entry, species assumed) above
5-HT1D, sequence (P28221 whole entry, species assumed): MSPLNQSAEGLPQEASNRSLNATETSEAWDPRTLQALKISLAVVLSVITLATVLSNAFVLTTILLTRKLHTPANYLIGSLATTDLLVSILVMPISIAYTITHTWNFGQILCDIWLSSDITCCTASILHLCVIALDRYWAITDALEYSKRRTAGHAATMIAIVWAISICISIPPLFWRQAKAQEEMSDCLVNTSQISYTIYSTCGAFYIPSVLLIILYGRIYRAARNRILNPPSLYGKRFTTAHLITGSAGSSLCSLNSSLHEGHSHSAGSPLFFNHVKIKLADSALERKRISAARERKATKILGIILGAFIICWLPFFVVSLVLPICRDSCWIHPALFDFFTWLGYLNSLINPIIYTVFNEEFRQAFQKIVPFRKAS

Question: With `O=C1Cc2cc(CCN3CCN(c4nsc5ccccc45)CC3)c(Cl)cc2N1` [ziprasidone, (5-[2-{4-(1,2-benzisothiazol-3-yl)piperizin-1-yl}ethyl]-6-chlorooxindole)hydrochloride hydrate] as the molecule, how does the 5-HT2 receptor antagonist (5-HT2 receptor) read?
Answer: highly potent and selective

Question: What about the “dopamine D2 receptor antagonist” value (dopamine D2 receptor) of the same molecule?
Answer: highly potent and selective

Question: What about the “affinity for 5-HT1A receptor subtype” value (5-HT1A) of the same molecule?
Answer: high affinity

Question: What about the “affinity for 5-HT1D receptor subtype” value (5-HT1D) of the same molecule?
Answer: high affinity

Question: What about the “affinity for 5-HT2C receptor subtype” value (5-HT2C) of the same molecule?
Answer: high affinity

Question: For `O=C1Cc2cc(CCN3CCN(C4=NS(=O)(=O)c5ccccc54)CC3)c(Cl)cc2N1` [ZIP-SO2, ziprasidone sulfone], which “share of ziprasidone metabolites found in human urine” value [1] is on record?
Answer: less than 3%

Question: With `CN1CCc2cc(Cl)c(O)cc2C(c2ccccc2)C1` (centres unmarked) [[^3H]SCH23390] as the molecule, how does the Kd (D2 dopamine receptors) read?
Answer: 0.34 nM

Question: For `O=C1Cc2cc(CCN3CCN(c4n[s+]([O-])c5ccccc45)CC3)c(Cl)cc2N1` (centres unmarked) [ZIP-SO, ziprasidone sulfoxide], which “share of ziprasidone metabolites found in human urine” value [1] is on record?
Answer: less than 10%

Reference: patent US7030142B1, “Methods for the treatment of neuroleptic and related disorders using ziprasidone metabolites” (Sepracor Inc., priority 1999, dated 2006)
